Data reported in patent publication US11174233B1, “Anti-cancer compounds having oxazolone derivation” (King Abdulaziz University, priority 2019, dated 2021).

What was measured:
[1] = system: PC3 (prostate) cancer cells; test: SRB cytotoxicity assay against PC3; format: cell-based, human; conditions: 72 h treatment
Method: (§1) MCF-7 (breast) and PC3 (prostate) cancer cells were each grown in RPMI-1640 medium supplemented with 10% heat inactivated FBS, 50 units/mL of penicillin, and […] of streptomycin. The cultures were maintained at 37° C. in a humidified atmosphere containing 5% CO2. The cells were maintained as “monolayer culture” by serial sub-culturing.
(§2) Cytotoxicity was determined using SRB method as previously described by Skehan et al. [Skehan P.; Storeng R.; Scudiero D.; Monks A.; McMahon J.; al., V. D. e., New colorimetric cytotoxicity assay for anticancer drug screening. […] Exponentially growing cells were collected using 0.25% Trypsin-EDTA and seeded in 96-well plates at 1000-2000 cells/well in RPMI-1640 supplemented medium. After 24 h, cells were incubated for 72 h with various concentrations of the tested compounds. Following 72 h treatment, the cells would be fixed with 10% trichloroacetic acid for 1 h at 4° C. Wells were stained for 10 min at room temperature with 0.4% SRB dissolved in 1% acetic acid. The plates were air dried for 24 h and the dye was solubilized with Tris-HCl for 5 min on a shaker at 1600 rpm. The optical density (OD) of each well was measured spectrophotometrically at 564 nm with an ELISA microplate reader (ChroMate-4300, FL, USA). The IC50 values were calculated according to the equation for Boltzman sigmoidal concentration—response curve using the nonlinear regression fitting models (Graph Pad, Prism Version 5).

[2] = system: MCF-7 (breast) cancer cells; test: SRB cytotoxicity assay against MCF7; format: cell-based, human; conditions: 72 h treatment
Method: as §1, §2

Compound | IC50 ([1]; Homo sapiens) | IC50 ([2]; Homo sapiens) | melting point | IC50 [1] | IC50 [2]
O=C(Cc1ccc(NC(=O)C(=Cc2ccc(Cl)cc2)NC(=O)c2ccccc2)cc1)NCc1ccccc1 (stereo in doubt) [KIM-221V, (E)-N-(3-((4-(2-(benzylamino)-2-oxoethyl)phenyl)amino)-1-(4-chlorophenyl)-3-oxoprop-1-en-2-yl)benzamide] | 4.08 µM | 3.12 µM | – | – | –
CC1=N/C(=C\c2ccccc2)C(=O)N1c1ccc(CC(=O)NCc2ccccc2)cc1 [KIM-111C, (Z)—N-benzyl-2-(4-(4-benzylidene-2-methyl-5-oxo-4,5-dihydro-1H-imidazol-1-yl)phenyl)acetamide] | – | – | 164 to 165 °C | – | –
CC(=O)N/C(=C/c1ccc(Cl)cc1)C(=O)Nc1ccc(CC(=O)NCc2ccccc2)cc1 [KIM-121V, (E)-2-acetamido-N-(4-(2-(benzylamino)-2-oxoethyl)phenyl)-3-(4-chlorophenyl)acrylamide] | 57.3 µM | > 100 µM | – | – | –
COc1cc(/C=C2\N=C(C)N(c3ccc(CC(=O)NCc4ccccc4)cc3)C2=O)ccc1O [KIM-131C, (Z)—N-benzyl-2-(4-(4-(4-hydroxy-3-methoxybenzylidene)-2-methyl-5-oxo-4,5-dihydro-1H-imidazol-1-yl)phenyl)acetamide] | 5.83 µM | 9.48 µM | – | – | –
COc1cc(/C=C(/NC(C)=O)C(=O)Nc2ccc(CC(=O)NCc3ccccc3)cc2)ccc1O [KIM-131V, (E)-2-acetamido-N-(4-(2-(benzylamino)-2-oxoethyl)phenyl)-3-(4-hydroxy-3-methoxyphenyl) acrylamide] | – | – | – | 61.3 µM | 53.5 µM
COc1ccc(/C=C(/NC(C)=O)C(=O)Nc2ccc(CC(=O)NCc3ccccc3)cc2)cc1 [KIM-161V, (E)-2-acetamido-N-(4-(2-(benzylamino)-2-oxoethyl)phenyl)-3-(4-methoxyphenyl) acrylamide] | – | – | – | 41.1 µM | 44.3 µM
O=C(Cc1ccc(N2C(=O)/C(=C/c3ccccc3)N=C2c2ccccc2)cc1)NCc1ccccc1 [KIM-211C, (Z)—N-benzyl-2-(4-(4-benzylidene-5-oxo-2-phenyl-4,5-dihydro-1H-imidazol-1-yl)phenyl)acetamide] | – | – | 218 to 219 °C | – | –
O=C(Cc1ccc(NC(=O)/C(=C\c2ccccc2)NC(=O)c2ccccc2)cc1)NCc1ccccc1 [KIM-211V, (E)-N-(3-((4-(2-(benzylamino)-2-oxoethyl)phenyl)amino)-3-oxo-1-phenylprop-1-en-2-yl) benzamide] | > 100 µM | > 100 µM | – | – | –
O=C(Cc1ccc(N2C(=O)/C(=C/c3ccc(Cl)cc3)N=C2c2ccccc2)cc1)NCc1ccccc1 [KIM-221C, (Z)—N-benzyl-2-(4-(4-(4-chlorobenzylidene)-5-oxo-2-phenyl-4,5-dihydro-1H-imidazol-1-yl)phenyl)acetamide] | – | – | 218 to 220 °C | – | –
COc1cc(/C=C2\N=C(c3ccccc3)N(c3ccc(CC(=O)NCc4ccccc4)cc3)C2=O)ccc1O [KIM-231C, (Z)—N-benzyl-2-(4-(4-(4-hydroxy-3-methoxybenzylidene)-5-oxo-2-phenyl-4,5-dihydro-1H-imidazol-1-yl)phenyl)acetamide] | – | – | 109 to 112 °C | – | –
COc1cc(/C=C(/NC(=O)c2ccccc2)C(=O)Nc2ccc(CC(=O)NCc3ccccc3)cc2)ccc1O [KIM-231V, (E)-N-(3-((4-(2-(benzylamino)-2-oxoethyl)phenyl)amino)-1-(4-hydroxy-3-methoxyphenyl)-3-oxoprop-1-en-2-yl)benzamide] | > 100 µM | > 100 µM | – | – | –
COc1ccc(/C=C2\N=C(c3ccccc3)N(c3ccc(CC(=O)NCc4ccccc4)cc3)C2=O)cc1 [KIM-261C, (Z)—N-benzyl-2-(4-(4-(4-methoxybenzylidene)-5-oxo-2-phenyl-4,5-dihydro-1H-imidazol-1-yl)phenyl)acetamide] | – | – | 193 °C | – | –
COc1ccc(/C=C(/NC(=O)c2ccccc2)C(=O)Nc2ccc(CC(=O)NCc3ccccc3)cc2)cc1 [KIM-261V, (E)-N-(3-((4-(2-(benzylamino)-2-oxoethyl)phenyl)amino)-1-(4-methoxyphenyl)-3-oxoprop-1-en-2-yl)benzamide] | > 100 µM | > 100 µM | – | – | –
Cc1cc(F)ccc1/C=C(/NC(=O)c1ccccc1)C(=O)Nc1ccc(CC(=O)NCc2ccccc2)cc1 [KIM-2101V, (E)-N-(3-((4-(2-(benzylamino)-2-oxoethyl)phenyl)amino)-1-(4-fluoro-2-methylphenyl)-3-oxoprop-1-en-2-yl)benzamide] | > 100 µM | > 100 µM | – | – | –
COc1ccc(CNC(=O)Cc2ccc(NC(=O)/C(=C\c3ccc(Cl)cc3)NC(=O)c3ccccc3)cc2)cc1 [KIM-2216V, (E)-N-(1-(4-chlorophenyl)-3-((4-(2-((4-methoxybenzyl)amino)-2-oxoethyl)phenyl)amino)-3-oxoprop-1-en-2-yl)benzamide] | > 100 µM | > 100 µM | – | – | –
O=C(Cc1ccc(NC(=O)/C(=C\c2ccc(Cl)cc2)NC(=O)c2ccccc2)cc1)NCc1ccco1 [KIM-2230V, (E)-N-(1-(4-chlorophenyl)-3-((4-(2-((furan-2-ylmethyl)amino)-2-oxoethyl)phenyl)amino)-3-oxoprop-1-en-2-yl)benzamide] | 97.8 µM | > 100 µM | – | – | –
CN(Cc1ccccc1)C(=O)Cc1ccc(NC(=O)/C(=C\c2ccc(Cl)cc2)NC(=O)c2ccccc2)cc1 [KIM-2245V, (E)-N-(3-((4-(2-(benzyl(methyl)amino)-2-oxoethyl)phenyl)amino)-1-(4-chlorophenyl)-3-oxoprop-1-en-2-yl)benzamide] | > 100 µM | > 100 µM | – | – | –
O=C(Cc1ccc(NC(=O)/C(=C\c2ccc(Cl)cc2)NC(=O)c2ccccc2)cc1)NCCc1ccccc1 [KIM-2246V, (E)-N-(1-(4-chlorophenyl)-3-oxo-3-((4-(2-oxo-2-(phenethylamino)ethyl)phenyl)amino)prop-1-en-2-yl)benzamide] | > 100 µM | > 100 µM | – | – | –
CC(NC(=O)Cc1ccc(NC(=O)/C(=C\c2ccc(Cl)cc2)NC(=O)c2ccccc2)cc1)c1ccccc1 (centres unmarked) [KIM-2247V, (E)-N-(1-(4-chlorophenyl)-3-oxo-3-((4-(2-oxo-2-((1-phenylethyl)amino)ethyl)phenyl)amino)prop-1-en-2-yl)benzamide] | > 100 µM | > 100 µM | – | – | –
O=C(Cc1ccc(NC(=O)/C(=C\c2ccc(Cl)cc2)NC(=O)c2ccccc2)cc1)NCc1ccc(F)cc1 [KIM-2248V, (E)-N-(1-(4-chlorophenyl)-3-((4-(2-((4-fluorobenzyl)amino)-2-oxoethyl)phenyl)amino)-3-oxoprop-1-en-2-yl)benzamide] | 85.1 µM | 89.6 µM | – | – | –
O=C(Cc1ccc(NC(=O)/C(=C\c2ccc(Cl)cc2)NC(=O)c2ccccc2)cc1)NCc1ccc(-c2ccccc2)cc1 [KIM-2249V, (E)-N-(3-((4-(2-(([1,1′-biphenyl]-4-ylmethyl)amino)-2-oxoethyl)phenyl)amino)-1-(4-chlorophenyl)-3-oxoprop-1-en-2-yl)benzamide] | 92.2 µM | 87.5 µM | – | – | –
O=C(Cc1ccc(NC(=O)/C(=C\c2ccc(Cl)cc2)NC(=O)c2ccccc2)cc1)NCc1cccc(F)c1 [KIM-2250V, (E)-N-(1-(4-chlorophenyl)-3-((4-(2-((3-fluorobenzyl)amino)-2-oxoethyl)phenyl)amino)-3-oxoprop-1-en-2-yl)benzamide] | > 100 µM | > 100 µM | – | – | –
O=C(Cc1ccc(NC(=O)/C(=C\c2ccc(Cl)cc2)NC(=O)c2ccccc2)cc1)Nc1ccccc1 [KIM-22101V, (E)-N-(1-(4-chlorophenyl)-3-oxo-3-((4-(2-oxo-2-(phenylamino)ethyl)phenyl)amino)prop-1-en-2-yl)benzamide] | > 100 µM | > 100 µM | – | – | –
